Experimental data from patent US20190002429A1, “Derivatives of Xanthone Compounds” (Agency for Science, Technology and Research, priority 2011, published 2019).
“And” between values parts separate entries of the source, which are not always exact repeats. Identical values can stand only once. “Also recorded” adds a separate entry of the source.

Legend:
[1] = pH value in different media; type: physicochemical
Source text: The pH values were obtained using an electronic pH meter.

[2] = test system: Enterococcus faecalis ATCC 51299 VRE; assay: MIC against Enterococcus faecalis ATCC 51299 VRE; type: cell-based; settings: E. faecalis ATCC 51299 VRE; no unit in table (Example 10 MICs in μg/ml)
[3] = test system: Clinical Staphylococcus aureus DM4001; assay: MIC against clinical S. aureus DM4001; type: cell-based; settings: Clinical S. aureus DM4001, Source: Eye
[4] = test system: Clinical Staphylococcus aureus DM4001; assay: Cytoplasmic membrane depolarization (DiSC3 dye); type: cell-based; settings: DiSC3 fluorescence; AM-016 at 12.5 ug/mL
Procedure: Membrane potential-sensitive dye 3,3′-dipropylthiadicarbocyanine iodide (DiSC3) was used to determine the cytoplasmic membrane depolarization activity of AM-016. An overnight culture of clinical Staphylococcus aureus DM4001(source: Eye) was allowed to grow in Muller-Hinton broth (MHB) to OD620=0.3-0.4. Then, the bacteria was collected by centrifugation at 2800 r.p.m at 37° C. for 30 minutes and washed with 5 mM HEPES buffer at pH7. […] The cell suspension was then incubated with 0.1M KCl and 0.4 μM DiSC3 at 37° C. for 30 minutes. Dye uptake was monitored by fluorospectrometry (Photon Technology International (PTI) Photomultiplier Detection Systems, model 814) in a stirred cuvette until the fluorescence signal was stable. The desired concentration of AM-016 was added and the fluorescence was monitored at an excitation wavelength of 622 nm and at an emission wavelength of 670 nm. A blank with dye in the absence of bacteria with same concentration of AM-016 was used as a control.

[5] = test system: Staphylococcus aureus ATCC 6538; assay: MIC against S. aureus ATCC 6538; type: cell-based
[6] = test system: Straphylococcus aureus ATCC 6538P; assay: MIC against S. aureus ATCC 6538P; type: cell-based, Staphylococcus aureus
[7] = test system: Streptococcus faecium ATCC 10541; assay: MIC against Streptococcus faecium ATCC 10541; type: cell-based
[8] = test system: S. aureus and Enterococcus faecalis; settings: 4 strains, sub-inhibitory concentrations, FIG. 8
MRSA DR42412 = assay: MIC against MRSA DR42412; type: cell-based, Staphylococcus aureus
[9] = test system: Clinical Staphylococcus aureus DM4583R; assay: MIC against clinical S. aureus DM4583R; type: cell-based; settings: Source: Eye
[10] = test system: Clinical Staphylococcus aureus DM4400R; assay: MIC against clinical S. aureus DM4400R; type: cell-based; settings: Source: Cornea
[11] = test system: Straphylococcus aureus ATCC 29737; assay: MIC against S. aureus ATCC 29737; type: cell-based, Staphylococcus aureus
S. aureus DM4001 = assay: SYTOX green membrane permeabilization assay, S. aureus; settings: 10 μM
Procedure: S. aureus DM4001 was harvested at early exponential phase and suspended in 40 mM PBS until OD620 of 0.09 was obtained. Then, the bacteria suspension was incubated with 3 μM of SYTOX Green in dark. The mixture was monitored in a stirring cuvette at an excitation wavelength of 504 nm and at an emission wavelength of 523 nm until the fluorescence was stable. Then, 10 μM of AM compounds were added and the changed of fluorescence emissions were monitored.

MRSA DM21595 = assay: MIC against MRSA DM21595; type: cell-based, Staphylococcus aureus

3,6-bis-[4-(diethylamino)butoxy)]-1-hydroxy-7-methoxy-2,8-bis(3-methylbut-2-enyl)-9H-xanthen-9-one [AM-016]
pH ([1]; PBS, 50 μg/ml compound): 6.96 ± 0.01 | pH ([1]; PBS, 100 μg/ml compound): 6.97 ± 0.01 | pH ([1]; Saline, 50 μg/ml compound): 6.84 ± 0.21 | pH ([1]; Saline, 100 μg/ml compound): 6.78 ± 0.05 | pH ([1]; Water, 50 μg/ml compound): 6.44 ± 0.27 | pH ([1]; Water, 70 μg/ml compound): 6.72 ± 0.23 | Minimum inhibitory concentration [2]: 1.56 | Minimum inhibition concentration (MIC) [3]: 1.56 μg/ml and 2.35 μM | Cytoplasmic membrane depolarization [4]: causes membrane depolarization; also recorded: depolarizes | Minimum inhibition concentration (MIC) [5]: 1.56 μg/ml and 2.35 μM | Minimum inhibition concentration (MIC) [6]: 0.78 μg/ml and 1.17 μM | Minimum inhibition concentration (MIC) [7]: 0.195 μg/ml and 0.295 μM | Resistance (>4-fold increase in original MIC) in multipassage study [8]: no evidence of resistance or cross-resistance | Minimum inhibition concentration (MIC) (MRSA DR42412; MRSA DR42412, Source: Sputum): 1.56 μg/ml and 2.35 μM | MIC (MRSA DR42412; MRSA-42412 (Sputum), Example 10, Mueller Hinton broth dilution): 0.395 µg/mL | Minimum inhibition concentration (MIC) [9]: 0.78 μg/ml and 1.17 μM | Minimum inhibition concentration (MIC) [10]: 0.78 μg/ml and 1.17 μM | Minimum inhibition concentration (MIC) [11]: 1.56 μg/ml and 2.35 μM | SYTOX green staining of bacteria (fluorescence microscopy) (S. aureus DM4001; FIG. 14): Large numbers of stained bacteria | Membrane permeabilization (SYTOX green fluorescence emission) (S. aureus DM4001; fluorescence spectroscopy): could induce membrane permeabilization | Minimum inhibition concentration (MIC) (MRSA DM21595; MRSA DM21595, Source: Wound): 0.78 μg/ml and 1.17 μM | MIC (MRSA DM21595; MRSA-21595 (Wound), Example 10, Mueller Hinton broth dilution): 0.395 µg/mL
